Assay results taken from US20260306491A1, “EGFR INHIBITOR FOR TREATING CANCERS COMPRISING ATYPICAL EGFR MUTATIONS” (ORIC Pharmaceuticals, Inc., priority 2023, published 2026).

How the values were obtained:
[1] = biological target: T1, EGFR_L792H (Homo sapiens, UniProt P00533, L792H); experiment: EGFR kinase activity (AQT0794 peptide, Sox fluorescence); assay type: biochemical; details: 1 mM ATP, 1.0 nM enzyme, room temperature
T1 construct: purchased SignalChem E10-122J2G
Method: (§1) Compound I was dissolved in DMSO to generate a 10 mM stock solution. Dosing solutions for biochemical assays were prepared by serial dilution in DMSO followed by dilution in assay buffers as described in the experimental procedures. Stock formulations were stored at −80° C. and dosing solutions were prepared for each experiment immediately prior to use.
(§2) Activity of human recombinant EGFR wildtype and mutant proteins was measured by the phosphorylation of a peptide substate via chelation-enhanced fluorescence using the sulfonamido-oxine (Sox) chromophore detection format. Compound I was solubilized in DMSO. 16-point half log titrations in 100% DMSO were carried out by a Bravo liquid handler (Agilent) in a 384-well polypropylene plate (Greiner Cat. #781201). Using the Bravo liquid handler, intermediate 1:10 dilutions in a 384-well polypropylene plate were created in assay buffer. For the enzymatic reactions, 5 μL from the intermediate compound dilution plate was transferred to a low volume 384 well, black flat-bottom polystyrene microplate (Greiner Cat. #784076). A separate plate was generated for each enzyme. Next, 5 μL of a 4× ATP/AQT0794 working solution was added to the assay plate. Finally, 10 μL of 2× enzyme was added to start the reactions. The plate was sealed with a PerkinElmer TopSeal-A Plus plate seal (Cat. #6050185) and read at excitation (360 nm) and emission (492 nm) in continuous kinetic mode every 2 minutes for 3 hours at room temperature. Reactions were performed in 50 mM HEPES, pH 7.5, 1 mM ATP, 1.0 mM DTT, 0.015% Brij-35, 0.01% BSA, 1.0 mM EGTA, 10 mM MgCl2, 10 μM EGFR peptide substrate probe from AssayQuant (Cat. #AQT0794) plus recombinant EGFR protein (Table 1). The final DMSO concentration was 2.5%.
(§3) Real-time continuous kinetic data were loaded into Dotmatics software where slopes were calculated, converted to % inhibitions and IC50s were generated using the four-parameter non-linear regression curve fit. Reactions lacking enzymes were used as 100% inhibition controls. After addition of recombinant EGFR and its substrates ATP and AQT0794, the activity of EGFR was measured by quantification of the phosphorylation of the AQT0794 peptide substate via chelation-enhanced fluorescence using the sulfonamido-oxine (Sox) chromophore detection format with diminishing signal indicative of inhibition of EGFR activity.

[2] = biological target: T2, EGFR WT (Homo sapiens, UniProt P00533); experiment: as above; assay type: biochemical; details: 1 mM ATP, 2.0 nM enzyme, room temperature
T2 construct: purchased ThermoFisher PV3872
T2 sequence (P00533 25-1210): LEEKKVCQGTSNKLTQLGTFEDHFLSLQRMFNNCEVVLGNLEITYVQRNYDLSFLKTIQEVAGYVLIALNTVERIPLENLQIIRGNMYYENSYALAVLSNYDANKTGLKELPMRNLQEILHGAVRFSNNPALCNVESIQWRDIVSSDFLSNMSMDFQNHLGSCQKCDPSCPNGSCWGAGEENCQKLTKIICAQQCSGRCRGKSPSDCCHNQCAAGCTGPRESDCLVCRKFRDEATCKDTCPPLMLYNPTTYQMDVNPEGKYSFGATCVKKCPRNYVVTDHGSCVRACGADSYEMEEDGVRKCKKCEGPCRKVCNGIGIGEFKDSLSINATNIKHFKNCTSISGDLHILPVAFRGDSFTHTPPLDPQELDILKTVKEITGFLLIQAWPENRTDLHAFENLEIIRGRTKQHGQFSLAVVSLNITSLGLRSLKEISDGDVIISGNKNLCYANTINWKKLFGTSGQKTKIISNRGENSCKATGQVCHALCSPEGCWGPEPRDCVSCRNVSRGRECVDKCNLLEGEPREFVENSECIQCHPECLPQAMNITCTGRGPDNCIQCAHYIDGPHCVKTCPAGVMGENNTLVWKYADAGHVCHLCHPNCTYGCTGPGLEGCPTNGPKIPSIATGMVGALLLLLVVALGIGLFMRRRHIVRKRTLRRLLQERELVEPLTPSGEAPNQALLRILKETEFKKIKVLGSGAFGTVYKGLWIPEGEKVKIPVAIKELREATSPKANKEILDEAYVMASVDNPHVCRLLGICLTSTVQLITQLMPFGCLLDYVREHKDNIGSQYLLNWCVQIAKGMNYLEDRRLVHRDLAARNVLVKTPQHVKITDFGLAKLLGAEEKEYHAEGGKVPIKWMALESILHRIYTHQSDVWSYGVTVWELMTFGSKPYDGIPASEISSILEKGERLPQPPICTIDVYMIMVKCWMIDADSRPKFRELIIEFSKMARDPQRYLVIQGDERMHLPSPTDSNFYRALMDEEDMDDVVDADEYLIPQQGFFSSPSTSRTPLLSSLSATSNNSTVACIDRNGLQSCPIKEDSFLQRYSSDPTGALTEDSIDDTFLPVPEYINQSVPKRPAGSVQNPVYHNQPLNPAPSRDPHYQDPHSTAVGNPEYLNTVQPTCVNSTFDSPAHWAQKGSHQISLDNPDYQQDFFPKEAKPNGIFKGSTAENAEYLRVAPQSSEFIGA
Method: as §1, §2, §3

[3] = Phase 1 relative bioavailability of capsule and tablet in healthy subjects: safety; assay type: in vivo, human
Method: A Phase 1, open-label, single dose study was conducted in healthy human subjects to evaluate the relative bioavailability of two formulations of Compound I. The first formulation of Compound I (Treatment A) was in the form of a capsule comprising about 15 mg of Compound I in the form of a hemifumarate, while the second formulation of Compound I (Treatment B) was in the form of a tablet comprising about 10 mg of Compound I in the form of a malonate and pharmaceutically acceptable excipients. The primary objective of the study was to evaluate the relative bioavailability (BA) of Treatment A and Treatment B administered as a single oral dose under fasting conditions in healthy adult subjects. A secondary objective was to evaluate the safety and tolerability of single dose administration of Compound I Treatment B under fasting conditions. The endpoints of the study were AUC0-last, AUC0-24, AUC0-inf, AUC % extrap, Cmax, Tmax, Kel, t½, CL/F, and Vz/F for Treatment A and Treatment B. The endpoints also included Aetl-t2, Ae, CLr, Fet1-t2, and Fe from Treatment B in period 2. A secondary endpoint included treatment-emergent AEs (TEAEs), clinical laboratory tests, vital signs, and 12 lead electrocardiogram (ECGs).
Methodology: The study was conducted as an open-label, single-dose study. Screening of subjects occurred within 28 days prior to the first dosing. The study was conducted as a randomized, 2-period, crossover study to assess the relative BA of Treatment A and Treatment B. On Day 1 of Period 1 and of Period 2, a single oral dose of Treatment A or Treatment B were administered under fasting conditions. Blood samples for PK were collected pre-dose and through 216 hours post-dose. Urine samples for PK were collected pre-dose and through 48 hours post-dose from subjects randomized to Period 2 Treatment B (tablets). There was a washout period of at least 10 days between dosing in each period. Safety was monitored throughout the study by repeated clinical and laboratory evaluations. Discontinued subjects were not replaced. All 30 enrolled subjects completed the study and were included in the PK and safety analyses.
60 mg Compound I in the form of Treatment B (6×10 mg tablets) was administered at Hour 0 on Day 1 under fasting conditions along with approximately 240 mL of water after a 10-hour fast. The total duration of participation including the screening period for each subject was approximately 8 weeks. There were 2 periods of approximately 14 days each; washout phase was 10 days between both doses. 60 mg of Compound I in the form of Treatment A (4×15 mg capsules) was administered to subjects at Hour 0 on Day 1 under fasting conditions along with approximately 240 mL of water after a 10-hour fast.
Plasma samples for the analysis of Compound I were collected at the following time points relative to dosing on Day 1 of each period: pre-dose and at 0.5, 1, 2, 3, 4, 5, 6, 7, 8, 10, 12, 16, 24, 36, 48, 72, 96, 120, 144, and 216 hours post-dose. Safety was evaluated by TEAEs, clinical laboratory tests, vital signs, 12 lead ECGs, and physical examinations. An analysis of variance (ANOVA) was performed on the natural log (ln)-transformed AUC0-last, AUC0-inf, and Cmax. The ANOVA model included sequence, treatment, and period as fixed effects, and subject nested within sequence as a random effect, and included calculation of least-squares means (LSMs) as well as the difference between treatment LSMs. Ratios of LSMs were calculated using the exponentiation of the difference between treatment LSMs from the analyses on the In-transformed AUC0-last, AUC0-inf, and Cmax. […] Safety was evaluated by clinical laboratory tests, physical examination, vital signs, 12 lead ECGs, and adverse events (AEs). There was no inferential statistics performed.

[4] = 60 mg single oral, healthy subjects
[5] = 60 mg single oral, healthy subjects (30)
[6] = overall, 60 mg single oral, mild

T1 sequence (P00533 25-1210 L792H): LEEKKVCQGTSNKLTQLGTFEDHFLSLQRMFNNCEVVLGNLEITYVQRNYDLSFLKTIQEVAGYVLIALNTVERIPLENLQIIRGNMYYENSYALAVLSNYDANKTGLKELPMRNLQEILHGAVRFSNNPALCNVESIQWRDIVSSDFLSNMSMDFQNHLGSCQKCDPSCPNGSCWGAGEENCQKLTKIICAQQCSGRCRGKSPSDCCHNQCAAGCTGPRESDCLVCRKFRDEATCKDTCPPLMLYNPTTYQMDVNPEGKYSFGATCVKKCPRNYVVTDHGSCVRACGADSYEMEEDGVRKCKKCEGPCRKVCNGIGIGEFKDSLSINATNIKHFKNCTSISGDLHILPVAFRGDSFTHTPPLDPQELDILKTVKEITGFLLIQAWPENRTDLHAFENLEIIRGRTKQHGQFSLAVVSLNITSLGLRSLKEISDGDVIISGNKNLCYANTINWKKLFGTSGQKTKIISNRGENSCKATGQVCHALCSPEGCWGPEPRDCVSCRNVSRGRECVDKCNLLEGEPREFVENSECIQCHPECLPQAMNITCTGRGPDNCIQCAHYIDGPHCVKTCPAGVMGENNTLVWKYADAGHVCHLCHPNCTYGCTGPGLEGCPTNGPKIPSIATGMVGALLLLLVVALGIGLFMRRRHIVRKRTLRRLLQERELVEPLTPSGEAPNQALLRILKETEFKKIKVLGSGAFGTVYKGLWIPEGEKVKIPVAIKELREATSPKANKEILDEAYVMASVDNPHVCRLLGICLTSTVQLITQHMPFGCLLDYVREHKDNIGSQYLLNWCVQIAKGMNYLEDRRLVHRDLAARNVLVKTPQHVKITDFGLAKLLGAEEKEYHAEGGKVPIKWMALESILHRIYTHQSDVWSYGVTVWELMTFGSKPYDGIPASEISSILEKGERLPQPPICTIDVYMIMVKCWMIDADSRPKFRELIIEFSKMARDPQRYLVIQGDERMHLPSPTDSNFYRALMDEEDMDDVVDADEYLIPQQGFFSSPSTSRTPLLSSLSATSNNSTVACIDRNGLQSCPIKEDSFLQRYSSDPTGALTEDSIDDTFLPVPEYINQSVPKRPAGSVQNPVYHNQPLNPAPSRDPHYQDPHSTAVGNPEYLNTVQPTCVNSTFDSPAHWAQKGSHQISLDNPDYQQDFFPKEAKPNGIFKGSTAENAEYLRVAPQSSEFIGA

Q: Which results are given for `C=CC(=O)Nc1cc(Nc2cc(N3OCC[C@@H]3c3cc(F)cc(F)c3)ncn2)c(OC)cc1N1CCC(N2CCN(C3CC3)CC2)CC1` [Compound I, N-[2-[4-(4-cyclopropyl-1-piperazinyl)-1-piperidinyl]-5-[[6-[(3R)-3-(3,5-difluorophenyl)-2-isoxazolidinyl]-4-pyrimidinyl]amino]-4-methoxyphenyl]-2-propenamide]?
A: IC50 [1]: 16 nM; IC50 [2]: 2.3 ± 1.1 nM; Safety and tolerability ([3]; 60 mg single oral (capsule or tablet), fasting, healthy subjects): generally safe and well tolerated; Clinical laboratory tests, vital signs, 12-lead ECG, physical examination [3, 4]: no clinically significant findings or trends; Deaths, serious adverse events (SAEs), or TEAEs leading to discontinuation [3, 4]: no deaths, serious adverse events (SAEs), or TEAEs leading to subject discontinuation; Severe TEAEs [3, 5]: No severe TEAEs were reported; Subjects reporting TEAEs [3, 5]: 47%; Subjects reporting TEAEs, number [3, 5]: 14 n; Subjects with TEAEs of maximum severity mild [3, 5]: 33%; Subjects with TEAEs of maximum severity mild, number [3, 5]: 10 n; Subjects with TEAEs of maximum severity moderate [3, 5]: 13%; Subjects with TEAEs of maximum severity moderate, number [3, 5]: 4 n; Subjects with TEAEs related to the study drug [3, 5]: 40%; Subjects with TEAEs related to the study drug, number [3, 5]: 12 n; Constipation (TEAE) [3, 6]: 10%; Constipation (TEAE), number of subjects [3, 6]: 3 n; Dry skin (TEAE) [3, 6]: 10%; Dry skin (TEAE), number of subjects [3, 6]: 3 n; Epistaxis (TEAE) [3, 6]: 10%; Epistaxis (TEAE), number of subjects [3, 6]: 3 n; Papular rash (TEAE) [3, 6]: 10%; Papular rash (TEAE), number of subjects [3, 6]: 3 n
